Experimental data published in US20090170899A1, “Stimulators of 5-HT4 receptors and uses thereof” (priority 2004, published 2009).
“Also recorded” adds a separate entry of the source.

What was measured:
Format in all cases: in vivo, rat
DRN 5-HT1A autoreceptors = experiment: Citalopram i.v. dose-response on DRN 5-HT neuron firing (5-HT1A autoreceptor sensitivity) after 3-day RS 67333
Procedure: FIG. 7 is a dose-response curve illustrating the effect of cumulative intravenous doses of citalopram on DRN 5-HT neuron average (mean±S.E.M.) firing rate, expressed as percentage of basal activity, in rats treated with the selective 5-HT4 agonist RS 67333 (1.5 mg/kg/day, 3 days, n=5) or its vehicle (n=5). Single-cell extracellular recordings were performed in the DRN of chloral-hydrate anaesthetized rats by using single-barrel glass microelectrodes, and 5-HT neurons were identified according to the classical criteria (see Example 5, the experimental procedures). RS 67333 was administered through the use of osmotic minipumps, inserted subcutaneously in the region of the back. Recordings were performed with the minipumps still in place.
Extracellular recordings of DRN 5-HT neurons. Recordings were performed using single-barreled glass micropipettes. Electrodes were filled with a 2 M NaCl solution saturated with Fast Green FCF, resulting in an impedance of 2-5 MΩ. Rats were anaesthetized with chloral hydrate (400 mg/kg, i.p.) and placed in a stereotaxic frame. A burr hole was drilled on the midline 1 mm anterior to lambda. DRN 5-HT neurons were encountered over a distance of 1 mm starting immediately below the ventral border of the Sylvius aqueduct. These neurons were identified using the classical criteria: a slow (0.5-2.5 Hz) and regular firing rate and long-duration (0.8-1.2 ms) positive action potentials (Aghajanian, 1978). At the end of the experiments, a 25 μA cathodal current was passed through the recording electrode to leave a Fast Green deposit at the recording site. Animals were sacrificed with an i.v. overdose of chloral hydrate, and the brain removed. The site of recording was verified under microscope immediately after experiments.
Statistical analysis. The comparison between the two slopes in FIG. 7 was performed by using the GraphPad Prism software (Version 3.03, GraphPad Software Inc.). All other statistics were performed by using one-way ANOVAs, followed by the Dunnett's test when multiple comparisons were necessary.
Effect of a 3-day treatment with a 5-HT4 agonist on DRN 5-HT1A autoreceptors sensitivity. […] In rats treated with the selective 5-HT4 agonist RS 67333 (Eglen et al., 1995) (1.5 mg/kg/day), these values were shifted to the right, reaching 226±26 and 430 μg/kg, respectively. […] The acute inhibitory effect produced by a SSRI on DRN 5-HT neuronal activity results from increased extracellular levels of 5-HT, due to the blockade of its reuptake, and is selectively related to the stimulation of somatodendritic 5-HT1A autoreceptors (Hajos et al., 1999). The degree of inhibition induced by citalopram has therefore been used as a reliable index of their sensitivity (Arborelius et al., 1999, 2004; Sanchez et al., 2003). It appears that a 3-day treatment with a 5-HT4 receptor agonist is sufficient to desensitize 5-HT1A autoreceptors in the DRN.

[1] = Forced swimming test (FST)
From the text: The “forced swimming test” (FST) is a behavioural test for rodents, which predicts the efficacy of antidepressant drugs (Porsolt et al., 1977; Lucki, 1997). […] The widespread use of this model is largely a result of its ease of use, reliability across laboratories and ability to detect a broad spectrum of antidepressant agents. The test is based on the observation that rats, following initial escape-oriented movements (climbing and swimming), develop an immobile posture when placed in an inescapable cylinder of water. If they are replaced in the same testing apparatus 24 h later, they resume this immobile posture quickly. The immobility is thought to reflect either a failure of persistence in escape-directed behavior (i.e. behavioral despair) or the development of passive behavior that disengages the animal from active forms of coping with stressful stimuli. If antidepressant treatments are given between the two exposures, the subjects will actively persist engaging in escape-directed behaviors for longer periods of time than after vehicle treatment. This will be reflected by a reduction of immobility time, and by an increase of climbing attempts. […] The combination effect of a particular 5-HT4 agonist and a SSRI may be evaluated using the FST model.
Experiments were carried out in male Sprague-Dawley rats (Charles River, St Constant, Québec). We used the FST as previously described (Porsolt et al., 1977). Briefly, the rats experienced a pretest session followed 24 hours later by a test session. For both the pretest and the test sessions, conducted under low illumination (12 lx), the rats were placed in a plastic cylindrical tank (50 cm high by 20 cm in diameter) filled with water at […], with a depth of 40 cm, for which the hind limbs could not reach the tank floor. In all experiments, the pretest was carried out for 15 min and the test for 5 min in the same tank but only the last 4 min were analyzed. Following either pretest or test sessions, rats were dried with a towel and kept warm for 30 min before returning in their home cage. A digital camera recorded on line animal's behavior during the FST, and both time of immobility and climbing attempts were counted. Citalopram hydrobromide (10 mg/kg, i.p.) or paroxetine (10 mg/kg, i.p.) and prucalopride hydrochloride (2.5 mg/kg, i.p.) or RS 67333 hydrochloride (1.5 mg/kg, i.p.) were administered simultaneously 30 minutes before the test session. Animals were divided into 4 groups: vehicle/vehicle, 5-HT4 agonist/vehicle, vehicle/SSRI and 5-HT4 agonist/SSRI. For each compound, distilled water was used as the vehicle. All drug dosages refer to the free base.
Behavioral experiments. We used the FST as previously described (Porsolt et al., 1977). Briefly, rats experienced a pre-test session followed 24 hours later by a test session. For both the pre-test and the test sessions, conducted under low illumination (12 lx), the animals were placed in a plastic cylindrical tank (50 cm high by 20 cm in diameter) filled with water at […], with a depth of 40 cm, for which the hind limbs could not reach the tank floor. In all experiments, the pre-test was carried out for 15 min and the test for 5 min in the same tank but the last 4 min only were analyzed. Prucalopride (2.5 mg/kg, i.p.) and RS 67333 (1.5 mg/kg, i.p.) were administered 30 min before the test session. Following either pre-test or test sessions, rats were dried with a towel and kept warm for 30 min before returning in their home cage. A camera coupled with a computer recorded on line animal behavior during the FST through a specialized digital interface (Videotrack, ViewPoint, Lyon, France). This interface underscored on line the subtraction of video frames. Immobility time in FST was derived from the number of frames (every 40 ms) being below a predefined threshold over FST duration.

[2] = tested on: hippocampal CA3 pyramidal neurons; experiment: Response of hippocampal CA3 pyramidal neurons to WAY 100635 after 3-day treatments (5-HT1A tonus)
Procedure: FIGS. 8A to 8C. […] Single-cell extracellular recordings were performed in the CA3 region of chloral-hydrate anaesthetized rats by using multiple-barrel glass microelectrodes, combined with microiontophoretic pumps (with the central barrel used for recordings). Pyramidal neurons were identified according to the classical criteria (see Example 5, the experimental procedures). The 5-HT4 agonists were administered through the use of osmotic minipumps, inserted subcutaneously in the region of the back. Recordings were performed with the minipumps still in place. *p<0.05, **p<0.01, ***p<0.001 vs control, Dunnett's test. […] FIG. 8C is a typical example showing the response of a single pyramidal neuron to cumulative doses of WAY 100635, in a rat co-administered with RS 67333 (same treatment as above for FIG. 8A) and the 5-HT depleter para-chlorophenylalanine (pCPA; 150 mg/kg, i.p. once daily 72, 48 and 24 h before the recordings).
Drugs and Chemicals. The following compounds were used: GR 125487 sulphamate, prucalopride monohydrochloride, citalopram hydrobromide (gifts from Glaxo, Janssen and Lundbeck laboratories, respectively), RS 67333 hydrochloride (Tocris Cookson Inc., Ellisville, Mo., USA), WAY 100635 hydrochloride (Research Biochemicals, Natick, Mass., USA), pCPA methyl ester hydrochloride, BrdU (Sigma-Aldrich Canada, Oakville, Ontario, Canada). All compounds were diluted in distilled water. All drug dosages refer to the free base. For chronic treatments, prucalopride (2.5 mg/kg/day), RS 67333 (1.5 mg/kg/day) or the vehicle were delivered through osmotic minipumps (Alza, Palo Alto, Calif., USA), inserted subcutaneously in the region of the back under short-duration (≦5 min) halothane anesthesia. The 5-HT depleter PCPA was administered once daily at the dose of 150 mg/kg, i.p., 72, 48 and 24 h before the recordings. BrdU treatments consisted of two administrations per day (50 mg/kg, i.p. each, 8 h interval), starting from the day of minipump insertion until day 2 post-surgery.
(§1) Microiontophoresis and extracellular recordings from hippocampal CA3 pyramidal neurons. Recording and microiontophoresis were performed with five-barreled glass micropipettes broken back to 8-12 μm under microscope control. The central barrel was filled with the same solution as in the DRN and was used for extracellular unitary recordings. Pyramidal neurons were identified by their large amplitude (0.5-1.2 mV) and long-duration (0.8-1.2 ms) simple spikes alternating with complex spike discharges (Kandel and Spencer, 1961). The side barrels contained the following solutions: quisqualate (1.5 mM in 200 mM NaCl, pH 8), WAY 100635 (15 mM in 200 mM NaCl, pH 4), and 2 M NaCl used for automatic current balancing. Rats were mounted in the stereotaxic apparatus and the micropipettes were lowered at 4.2 mm lateral and 4.2 anterior to lambda into the CA3 sub-region of the dorsal hippocampus.
The firing activity of dorsal hippocampus pyramidal neurons was then recorded in the CA3 subfield, before and after systemic administration of the selective 5-HTLA antagonist WAY 100635.

[3] = tested on: hippocampal CA3 pyramidal neurons; experiment: Acute i.v. prucalopride on firing of hippocampal CA3 pyramidal neurons, with microiontophoresis
Procedure: FIGS. 9A to 9D. FIGS. 9A and 9C show a typical example (integrated firing rate histogram) of the response of a single hippocampal pyramidal neuron of the CA3 sub-field to an acute, intravenous administration of the selective 5-HT4 agonist prucalopride (1000 μg/kg), and its reversal by local, microiontophoretic application of the selective 5-HT1A antagonist WAY 100635 (A), or systemic injection of the selective 5-HT4 antagonist GR 125487 (1000 μg/kg, i.v.) (C). Single-cell extracellular recordings were performed in the CA3 region of chloral-hydrate anaesthetized rats by using multiple-barrel glass microelectrodes, combined with microiontophoretic pumps (with the central barrel used for recordings). Pyramidal neurons were identified according to the classical criteria (see Example 5, experimental procedures). FIGS. 9B and 9D show a summary of the effects as for FIGS. 9A and 9C, respectively. Bar histograms represent the mean (S.E.M.) percentage effect, calculated for each neuron with respect to its basal firing rate (i.e. 100% value), and the number in each column represents the number of neurons tested. *p<0.05 vs basal value, one-way ANOVA.
as §1
Involvement of endogenous 5-HT and hippocampal 5-HT1A receptors in the effect of 5-HT4 agonists. […] This interpretation is consistent with our own previous findings, showing that both acute and chronic (3-day) administration of the same compounds augment DRN 5-HT neuronal firing activity (Lucas and Debonnel, 2002; Lucas et al., 2005). It is also in keeping with observations from a single in vivo microdialysis study, where acute systemic injection of preferential 5-HT4 agonists increased hippocampal 5-HT efflux (Ge and Barnes, 1996). To further address this possibility, two additional series of experiments were conducted. First, the role of endogenous 5-HT was assessed by using the same protocol as above, in rats co-treated with RS 67333 (or its vehicle) and the 5-HT depleter para-chlorophenylalanine (pCPA). […] The ejection currents of quisqualate needed to activate CA3 pyramidal neurons were, in this case, similar to those used in controls (0 to −2 nA, FIG. 8C). We then tested the ability of a local application of WAY 100635, directly into the CA3 subfield through the use of microiontophoresis, to modify the effect of a 5-HT4 agonist. We chose not to use the previous protocol (i.e. chronic treatments), because, as shown above, the required quisqualate currents differ between the experimental groups. Even though all currents were balanced, it was not possible to exclude the possibility that the amount of quisqualate present in the vicinity of the electrode may have an influence on the quantity of WAY 100635 actually ejected, and/or on its ability to act on pyramidal neurons. For this reason, prucalopride was used acutely in naïve rats, at a dose known to induce a significant augmentation of DRN 5-HT neuronal activity (1000 μg/kg, i.v.) (Lucas and Debonnel, 2002). […]

DRN 5-HT neurons = experiment: Extracellular single-unit recordings of DRN 5-HT neuron mean firing rate in anaesthetized rats
Procedure: In a second part of the study, the selective 5-HT4 agonists prucalopride (Briejer et al., 2001) and RS 67333 (Eglen et al., 1995) were administered either subacutely (i.e. 30 min before the beginning of recordings), or continuously through the use of osmotic minipumps during 3 or 21 days. The selective 5-HT4 antagonist GR 125487 (Gale et al., 1994) was also used to confirm the involvement of 5-HT4 receptors in the effects of the agonists. Successive single-cell extracellular recording tracks were then performed along the DRN of anaesthetized rats. This set of experiments was performed in order to globally assess the effect of such treatments on the mean activity of 5-HT neurons.
Pharmacological treatments. All the 3 different 5-HT4 pharmacological agents were diluted in a solution of physiological saline (NaCl 0.9%), and administered in a dose range known to induce significant binding on 5-HT4 sites (Lucas and Debonnel, 2002; Lamirault and Simon, 2001; Porras et al., 2002). In subacute experiments, prucalopride, RS 67333 or their vehicle were administered i.p. 30 min. before the beginning of recordings. For chronic treatments (both 3 and 21 days), prucalopride, RS 67333 or their vehicle were delivered through osmotic minipumps (Alza, Palo Alto, Calif.) inserted subcutaneously. Electrophysiological recordings were performed with the minipumps in place. […] In a separate set of experiments, the 5-HT4 antagonist GR 125487 was tested in animals treated for 3 days with either prucalopride or RS 67333. Two DRN tracks were first performed, then GR 125487 was administered i.v. (via a lateral vein of the tail) and 2-3 additional tracks were performed, starting 30 min. after the injection. All drug dosages refer to the free base.
Extracellular recordings of DRN 5-HT neurons. Recordings were performed using single-barreled glass micropipettes. Electrodes were filled with a 2 M NaCl solution saturated with Fast Green FCF, resulting in an impedance of 2-5 MΩ. Rats were anaesthetized with chloral hydrate (400 mg/kg, i.p.) and placed in a stereotaxic frame. A burr hole was drilled on the midline 1 mm anterior to lambda. DRN 5-HT neurons were encountered over a distance of 1 mm starting immediately below the ventral border of the Sylvius aqueduct. These neurons were identified using the classical criteria: a slow (0.5-2.5 Hz) and regular firing rate and long-duration (0.8-1.2 ms) positive action potentials (Aghajanian, 1978). In each animal, four to five successive descents were performed along the DRN, and a total of 10-16 cells was recorded. At the end of the experiments, a 25 μA cathodal current was passed through the recording electrode to leave a Fast Green deposit at the recording site. Animals were sacrificed with an i.v. overdose of chloral hydrate, and the brain removed. The site of recording was verified under microscope immediately after experiments.
Statistical analysis. In each experimental group, data were expressed as means±S.E.M. of all the recorded neurons, unless otherwise specified. The effects of the different 5-HT4 agonist administrations on the firing activity of DRN 5-HT neurons was assessed using one-way ANOVAs, followed by the post-hoc Dunnett's test when significant. The influence of GR 125487 on the effect of a 3-day treatment with prucalopride or RS 67333 was assessed using two-way ANOVAs followed by the post-hoc Tukey's test. In all cases, p<0.05 was chosen as the criterion of significance.

[4] = rats treated with RS 67333 1.5 mg/kg/day, 3 days
[5] = microiontophoretic application, 1 nA

## CN(C)CCCC1(c2ccc(F)cc2)OCc2cc(C#N)ccc21 (centres unmarked) [citalopram]
DRN 5-HT1A autoreceptors; RS 67333 group (1.5 mg/kg/day, 3 days)
  slope of the dose-response curve: −0.25±0.02
DRN 5-HT1A autoreceptors; naïve (vehicle) animals
  ED50 of inhibition of 5-HT neuronal firing rate: 0.13 ± 0.03 mg/kg
  ED100 of inhibition of 5-HT neuronal firing rate: 0.28 mg/kg
DRN 5-HT1A autoreceptors; [4]
  ED50 of inhibition of 5-HT neuronal firing rate: 0.226 ± 0.026 mg/kg
  ED100 of inhibition of 5-HT neuronal firing rate: 0.43 mg/kg
DRN 5-HT1A autoreceptors; vehicle group
  slope of the dose-response curve: −0.34±0.03
[1]; Example 3, single i.p. 30 min before test, citalopram or paroxetine 10 mg/kg, prucalopride 2.5 mg/kg, RS 67333 1.5 mg/kg
  change of total time of immobility in FST: −34%
[1]; Example 4, citalopram 3 mg/kg i.p.
  effect on immobility in FST: no effect

## N[C@@H](Cc1ccc(Cl)cc1)C(=O)O (racemic) [pCPA, para-chlorophenylalanine]
[2]; rats co-treated with RS 67333 and pCPA
  quisqualate ejection currents needed to activate CA3 pyramidal neurons: 0 to −2 nA
[2]; rats treated with RS 67333, pCPA 150 mg/kg i.p. 72, 48 and 24 h before
  effect of pCPA on the facilitory action of WAY 100635: totally abolished
[2]; vehicle group
  effect of pCPA on CA3 neuron firing activity and response to WAY 100635: no effect per se

## COc1ccccc1N1CCN(CCN(C(=O)C2CCCCC2)c2ccccn2)CC1 [WAY 100635]
[3]; [5]
  effect of local WAY 100635 by itself: devoid of any effect
  effect of local WAY 100635 on the inhibition by prucalopride: totally reversed
[2]; rat, in vivo, iv
  effect of WAY 100635 on CA3 pyramidal neurons: no effect; also recorded: without any effect

## COc1[nH]c2ccc(F)cc2c1C(=O)OCC1CCN(CCNS(C)(=O)=O)CC1 [GR 125487]
DRN 5-HT neurons; GR 125487 acute i.v., tracks from 30 min after injection
  effect of GR 125487 on the facilitory effect of 3-day prucalopride or RS 67333 on DRN 5-HT firing rate: totally suppressed
DRN 5-HT neurons; acute i.v., control rats
  effect of GR 125487 on its own on 5-HT neuronal activity: small, non statistically significant
[3]; GR 125487 1000 μg/kg i.v.
  effect of GR 125487 on the action of prucalopride: abolished
